Results published in ChEMBL document CHEMBL4742400, “Protein kinase mkk4 inhibitors for promoting liver regeneration or reducing or preventing hepatocyte death” (2019).

Columns and labels:
Homo sapiens [1] = species: Homo sapiens; test: (§1) Selectivity index, ratio of inhibition of full length human JNK1 (M1 to Q384 residues) expressed in mammalian expression system assessed as residual percent of control binding at 100 nM relative to control to inhibition of partial length human MKK4 (S84 to D399 residues) expressed in mammalian expression system assessed as residual percent of control binding at 100 nM relative to control
Homo sapiens [2] = species: Homo sapiens; test: Selectivity index, ratio of inhibition of B-raf (unknown origin) to inhibition of partial length human MKK4 (S84 to D399 residues) expressed in mammalian expression system assessed as residual percent of control binding at 100 nM relative to control
Homo sapiens [3] = species: Homo sapiens; test: as §1, with “MKK7” for “JNK1”, “R419” for “Q384”

SMILES	Selectivity ratio (Homo sapiens [1])	Selectivity ratio (Homo sapiens [2])	Selectivity ratio (Homo sapiens [3])
CCCS(=O)(=O)Nc1ccc(F)c(C(=O)c2n[nH]c3ncc(-c4ccc(C(C)C)cc4)cc23)c1F	3	3	3
CCCS(=O)(=O)Nc1ccc(F)c(C(=O)c2n[nH]c3ncc(-c4cccc(N)c4)cc23)c1F	> 30	< 3	> 30
CCCS(=O)(=O)Nc1ccc(F)c(C(=O)c2n[nH]c3ncc(-c4ccc(OC)cc4)cc23)c1F	10	< 3	10
CCCS(=O)(=O)Nc1ccc(F)c(C(=O)c2n[nH]c3ncc(-c4ccc(C)cc4)cc23)c1F	10	< 3	10
CCCS(=O)(=O)Nc1ccc(F)c(C(=O)c2n[nH]c3ncc(-c4ccccc4O)cc23)c1F	3	3	10
CCCS(=O)(=O)Nc1ccc(F)c(C(=O)c2n[nH]c3ncc(-c4ccc(C(=O)NCC(O)CO)cc4)cc23)c1F (stereo unspecified)	> 30	< 3	> 30
CCCS(=O)(=O)Nc1ccc(F)c(C(=O)c2n[nH]c3ncc(-c4cccc(C(F)(F)F)c4)cc23)c1F	< 3	< 3	< 3
CCCS(=O)(=O)Nc1ccc(F)c(C(=O)c2n[nH]c3ncc(-c4ccc(S(C)(=O)=O)cc4)cc23)c1F	> 30	< 3	> 30
CCCS(=O)(=O)Nc1c(F)ccc(C(=O)c2n[nH]c3ncc(-c4ccc(C(=O)O)cc4)cc23)c1F	> 30	> 30	> 30
CCCS(=O)(=O)Nc1ccc(F)c(C(=O)c2n[nH]c3ncc(-c4ccc(C(C)(C)C)cc4)cc23)c1F	< 3	< 3	< 3
CCCS(=O)(=O)Nc1ccc(F)c(C(=O)c2n[nH]c3ncc(-c4cccc(O)c4)cc23)c1F	3	3	> 30
CCCS(=O)(=O)Nc1ccc(F)c(C(=O)c2n[nH]c3ncc(-c4ccc(C)c(C)c4)cc23)c1F	3	< 3	3
CCCS(=O)(=O)Nc1ccc(F)c(C(=O)c2n[nH]c3ncc(-c4ccccc4C)cc23)c1F	10	3	10
CCCS(=O)(=O)Nc1ccc(F)c(C(=O)c2n[nH]c3ncc(-c4ccc(O)cc4)cc23)c1F	> 30	10	> 30
CCCS(=O)(=O)Nc1ccc(F)c(C(=O)c2n[nH]c3ncc(-c4cccc(F)c4)cc23)c1F	10	< 3	10
CCCS(=O)(=O)Nc1ccc(F)c(C(=O)c2n[nH]c3ncc(-c4ccc(Cl)cc4Cl)cc23)c1F	3	3	3
CCCCS(=O)(=O)Nc1cccc(C(=O)c2n[nH]c3ncc(-c4ccc5c(c4)OCCO5)cc23)c1F	< 3	3	3
CCCS(=O)(=O)Nc1ccc(F)c(C(=O)c2n[nH]c3ncc(-c4ccc(C(=O)O)cc4)cc23)c1F	> 30	10	> 30
CCCS(=O)(=O)Nc1ccc(F)c(C(=O)c2n[nH]c3ncc(-c4ccc(S(=O)(=O)NCC(O)CO)cc4)cc23)c1F (stereo unspecified)	> 30	< 3	> 30
CCCS(=O)(=O)Nc1ccc(F)c(C(=O)c2n[nH]c3ncc(-c4cc(Cl)cc(Cl)c4)cc23)c1F	< 3	< 3	< 3
CCCS(=O)(=O)Nc1ccc(F)c(C(=O)c2n[nH]c3ncc(-c4cccc(OC)c4)cc23)c1F	10	3	10
CCCS(=O)(=O)Nc1ccc(F)c(C(=O)c2n[nH]c3ncc(-c4ccc(C(F)(F)F)cc4)cc23)c1F	3	< 3	3
CCCS(=O)(=O)Nc1ccc(F)c(Sc2n[nH]c3ncc(-c4ccc(Cl)cc4)cc23)c1F	< 3	< 3	< 3
CCCS(=O)(=O)Nc1ccc(F)c(C(=O)c2n[nH]c3ncc(-c4ccc(N)cc4)cc23)c1F	> 30	10	> 30

SMILES	Selectivity ratio (Homo sapiens [1])	Selectivity ratio (Homo sapiens [2])	Selectivity ratio (Homo sapiens [3])
CCCS(=O)(=O)Nc1ccc(F)c([S+]([O-])c2n[nH]c3ncc(-c4ccc(Cl)cc4)cc23)c1F (stereo unspecified)	< 3	< 3	< 3
CCCS(=O)(=O)Nc1ccc(F)c(C(=O)c2n[nH]c3ncc(-c4ccc(-c5nnn[nH]5)cc4)cc23)c1F	> 30	3	> 30
CCCS(=O)(=O)Nc1ccc(F)c(C(=O)c2n[nH]c3ncc(-c4cccc([N+](=O)[O-])c4)cc23)c1F	3	< 3	3
CCCS(=O)(=O)Nc1ccc(F)c(C(=O)c2n[nH]c3ncc(-c4ccccc4Cl)cc23)c1F	10	3	10
CCCS(=O)(=O)Nc1ccc(F)c(C(=O)c2n[nH]c3ncc(-c4ccc(F)cc4)cc23)c1F	> 30	10	> 30
CCCS(=O)(=O)Nc1ccc(F)c(C(=O)c2n[nH]c3ncc(-c4cccc(Cl)c4)cc23)c1F	< 3	< 3	< 3
O=C(c1ccc(F)c(NS(=O)(=O)Cc2ccccc2)c1F)c1n[nH]c2ncc(-c3ccncc3)cc12	> 30	> 30	> 30
CCCS(=O)(=O)Nc1ccc(F)c(Cc2n[nH]c3ncc(-c4ccc(Cl)cc4)cc23)c1F	< 3	< 3	< 3
CCCS(=O)(=O)Nc1ccc(F)c(C(=O)c2n[nH]c3ncc(-c4ccccc4N)cc23)c1F	3	3	3
CCCS(=O)(=O)Nc1ccc(F)c(S(=O)(=O)c2n[nH]c3ncc(-c4ccc(Cl)cc4)cc23)c1F	< 3	< 3	< 3
CCCS(=O)(=O)Nc1ccc(F)c(C(=O)c2n[nH]c3ncc(-c4ccc(Cl)c(C(F)(F)F)c4)cc23)c1F	> 30	< 3	3
CCCS(=O)(=O)Nc1ccc(F)c(NC(=O)c2n[nH]c3ncc(-c4ccc(Cl)cc4)cc23)c1F	< 3	< 3	< 3
CCCS(=O)(=O)Nc1ccc(F)c(C(=O)c2n[nH]c3ncc(-c4ccc(S(N)(=O)=O)cc4)cc23)c1F	> 30	3	> 30
CCCS(=O)(=O)Nc1ccc(F)c(C(=O)c2n[nH]c3ncc(-c4cccc(N(C)C)c4)cc23)c1F	3	< 3	3
CCCS(=O)(=O)Nc1ccc(F)c(C(=O)c2n[nH]c3ncc(-c4ccc(C(N)=O)cc4)cc23)c1F	> 30	3	> 30
CCCS(=O)(=O)Nc1ccc(F)c(C(=O)c2n[nH]c3ncc(-c4ccccc4OC)cc23)c1F	10	> 30	> 30
CCCS(=O)(=O)Nc1ccc(F)c(C(=O)c2n[nH]c3ncc(-c4ccccc4)cc23)c1F	10	10	> 30
CCCS(=O)(=O)Nc1ccc(F)c(C(=O)c2n[nH]c3ncc(-c4ccccc4F)cc23)c1F	> 30	10	> 30
CCCS(=O)(=O)Nc1ccc(F)c(C(=O)c2n[nH]c3ncc(-c4ccc(Cl)c(Cl)c4)cc23)c1F	10	< 3	< 3
CCCS(=O)(=O)Nc1ccc(F)c(C(=O)c2n[nH]c3ncc(-c4ccc([N+](=O)[O-])cc4)cc23)c1F	10	3	10
CCCS(=O)(=O)Nc1ccc(F)c(C(=O)c2n[nH]c3ncc(-c4ccc(S(=O)(=O)NC(C)=O)cc4)cc23)c1F	> 30	< 3	> 30
CCCS(=O)(=O)Nc1ccc(F)c(C(=O)c2n[nH]c3ncc(-c4ccc(N(C)C)cc4)cc23)c1F	> 30	< 3	> 30
CCCS(=O)(=O)Nc1ccc(F)c(C(=O)c2n[nH]c3ncc(-c4cccc(C)c4)cc23)c1F	3	< 3	3
